Data as given in US8124793B2, “Derivatives of ethylene methanedisulfonate as cancer chemotherapeutic agents” (priority 2007, dated 2012).

How the values were obtained:
Type in all cases: cell-based
[1] = system: SNB-19; experiment: NCI screen, growth of human tumor cells: CNS Cancer SNB-19
Description: (§1) In the NCI screening process, each compound was tested and described by a minimum of 60 data points. The test data include, but are not limited to the type of cancer, the molar concentration used in the screen, and the percent growth of the cancer. In some cases, NMR and elemental analysis were used for structural assignment.

[2] = system: human cancer cells; experiment: NCI screen summary over the cancers tested (negative growth of human cancer cells); conditions: 10^−4 M conc.; cancers with negative growth / cancers tested
Description: as §1
The derivatives in the tables are grouped using the same category as in the tables 1-6.

[3] = system: SNB-75; experiment: NCI screen, growth of human tumor cells: CNS Cancer SNB-75; conditions: SNB-75 (CNS Cancer), 10^−4 molar
Description: as §1

[4] = system: SK-MEL-5; experiment: NCI screen, growth of human tumor cells: Melanoma SK-MEL-5; conditions: SK-MEL-5 (Melanoma), 10^−4 molar
Description: as §1

[5] = system: HCC-2998; experiment: NCI screen, growth of human tumor cells: HCC-2998 (listed under Non-Small Cell Lung); conditions: for percent of growth of human tumor cells: HCC-2998 (under Non-Small Cell Lung), 10^−4 molar
Description: as §1

[6] = system: MCF7/ADR-RES; experiment: NCI screen, growth of human tumor cells: Breast Cancer MCF7/ADR-RES; conditions: MCF7/ADR-RES (Breast Cancer), 10^−4 molar
Description: as §1

[7] = system: NCI-H23; experiment: NCI screen, growth of human tumor cells: Non-Small Cell Lung NCI-H23; conditions: NCI-H23 (Non-Small Cell Lung), 10^−4 molar
Description: as §1

[8] = system: COLO205; experiment: NCI screen, growth of human tumor cells: Colon Cancer COLO205; conditions: COLO205 (Colon Cancer), 10^−4 molar
Description: as §1

[9] = system: MCF 7; experiment: NCI screen, growth of human tumor cells: Breast Cancer MCF 7; conditions: MCF 7 (Breast Cancer), 10^−4 molar
Description: as §1

[10] = system: SF-268; experiment: NCI screen, growth of human tumor cells: CNS Cancer SF-268; conditions: SF-268 (CNS Cancer), 10^−4 molar
Description: as §1

[11] = system: OVCAR-3; experiment: NCI screen, growth of human tumor cells: Ovarian Cancer OVCAR-3; conditions: OVCAR-3 (Ovarian Cancer), 10^−4 molar
Description: as §1

[12] = system: HCT-15; experiment: NCI screen, growth of human tumor cells: Colon Cancer HCT-15; conditions: HCT-15 (Colon Cancer), 10^−4 molar
Description: as §1

[13] = system: HS 578T; experiment: NCI screen, growth of human tumor cells: Breast Cancer HS 578T; conditions: HS 578T (Breast Cancer), 10^−4 molar
Description: as §1

[14] = system: IGROVI; experiment: NCI screen, growth of human tumor cells: Ovarian Cancer IGROVI; conditions: IGROVI (Ovarian Cancer), 10^−4 molar
Description: as §1

[15] = system: MALME-3M; experiment: NCI screen, growth of human tumor cells: Melanoma MALME-3M; conditions: MALME-3M (Melanoma), 10^−4 molar
Description: as §1

[16] = system: U-251; experiment: NCI screen, growth of human tumor cells: CNS Cancer U-251; conditions: U-251 (CNS Cancer), 10^−4 molar
Description: as §1

[17] = system: UACC-62; experiment: NCI screen, growth of human tumor cells: Melanoma UACC-62; conditions: UACC-62 (Melanoma), 10^−4 molar
Description: as §1

[18] = system: MDA-MB-435; experiment: NCI screen, growth of human tumor cells: Breast Cancer MDA-MB-435
Description: as §1

[19] = system: UACC-257; experiment: NCI screen, growth of human tumor cells: Melanoma UACC-257; conditions: UACC-257 (Melanoma), 10^−4 molar
Description: as §1

[20] = system: HOP-92; experiment: NCI screen, growth of human tumor cells: Non-Small Cell Lung HOP-92; conditions: HOP-92 (Non-Small Cell Lung), 10^−4 molar
Description: as §1

[21] = system: LOXIMVI; experiment: NCI screen, growth of human tumor cells: Melanoma LOXIMVI; conditions: LOXIMVI (Melanoma), 10^−4 molar
Description: as §1

[22] = system: OVCAR-4; experiment: NCI screen, growth of human tumor cells: Ovarian Cancer OVCAR-4; conditions: OVCAR-4 (Ovarian Cancer), 10^−4 molar
Description: as §1

[23] = system: DU-145; experiment: NCI screen, growth of human tumor cells: Prostate Cancer DU-145; conditions: DU-145 (Prostate Cancer), 10^−4 molar
Description: as §1

[24] = system: NCI-H522; experiment: NCI screen, growth of human tumor cells: Non-Small Cell Lung NCI-H522; conditions: NCI-H522 (Non-Small Cell Lung), 10^−4 molar
Description: as §1

[25] = system: NCI-H460; experiment: NCI screen, growth of human tumor cells: Non-Small Cell Lung NCI-H460; conditions: NCI-H460 (Non-Small Cell Lung), 10^−4 molar
Description: as §1

[26] = system: BT-549; experiment: NCI screen, growth of human tumor cells: Breast Cancer BT-549; conditions: BT-549 (Breast Cancer), 10^−4 molar
Description: as §1

[27] = system: SN12C; experiment: NCI screen, growth of human tumor cells: Renal Cancer SN12C; conditions: SN12C (Renal Cancer), 10^−4 molar
Description: as §1

[28] = system: HL-60 (TB); experiment: NCI screen, growth of human tumor cells: Leukemia HL-60 (TB); conditions: HL-60 (TB) (Leukemia), 10^−4 molar
Description: as §1

[29] = system: UO-31; experiment: NCI screen, growth of human tumor cells: Renal Cancer UO-31; conditions: UO-31 (Renal Cancer), 10^−4 molar
Description: as §1

[30] = system: SR; experiment: NCI screen, growth of human tumor cells: Leukemia SR; conditions: for % Growth: SR
Description: as §1

[31] = system: K562; experiment: NCI screen, growth of human tumor cells: Leukemia K562; conditions: K562 (Leukemia), 10^−4 molar
Description: as §1

[32] = system: MOLT-4; experiment: NCI screen, growth of human tumor cells: Leukemia MOLT-4
Description: as §1

[33] = system: M14; experiment: NCI screen, growth of human tumor cells: Melanoma M14; conditions: M14 (Melanoma), 10^−4 molar
Description: as §1

[34] = system: CCRF-CEM; experiment: NCI screen, growth of human tumor cells: Leukemia CCRF-CEM; conditions: CCRF-CEM (Leukemia), 10^−4 molar
Description: as §1

[35] = system: 786-0; experiment: NCI screen, growth of human tumor cells: Renal Cancer 786-0; conditions: 786-0 (Renal Cancer), 10^−4 molar
Description: as §1

[36] = system: SF-539; experiment: NCI screen, growth of human tumor cells: CNS Cancer SF-539; conditions: SF-539 (CNS Cancer), 10^−4 molar
Description: as §1

O=S(=O)([O-])OCCCC1S(=O)(=O)OCCOS1(=O)=O.[Na+] [NSC 674994, butane-1-[hydroxyhydrogensulfate]-4,4-[ethylenedisulfonate]]
% Growth ([1]; SNB-19, 10^−4 molar): 36% | % Growth ([1]; SNB-19, 10^−5 molar): 45% | % Growth ([1]; SNB-19, 10^−6 molar): 47% | % Growth ([1]; SNB-19, 10^−7 molar): 73% | % Growth ([1]; SNB-19, 10^−8 molar): 67% | Percentage of cancers showing negative growth cancers tested [2]: 10^−4 M conc. = 0/1 = 0%

CCOCC1(CC2=C(C)C(=O)c3ccccc3C2=O)S(=O)(=O)OCCOS1(=O)=O [NSC 698124]
percent of growth of human tumor cells [3]: 11% | percent of growth of human tumor cells [4]: 9% | percent of growth of human tumor cells [5]: 8% | percent of growth of human tumor cells [6]: 30% | percent of growth of human tumor cells [7]: 16% | percent of growth of human tumor cells [8]: −25% | percent of growth of human tumor cells [9]: 19% | percent of growth of human tumor cells [10]: 20% | percent of growth of human tumor cells [11]: −17% | percent of growth of human tumor cells [12]: 15% | percent of growth of human tumor cells [13]: 27% | percent of growth of human tumor cells [14]: 6% | percent of growth of human tumor cells [15]: −9% | percent of growth of human tumor cells [16]: 20% | percent of growth of human tumor cells [17]: −32% | % Growth ([18]; MDA-MB-435, 10^−4 molar): −74% | percent of growth of human tumor cells [19]: 12% | percent of growth of human tumor cells [20]: 27% | percent of growth of human tumor cells [21]: −55% | percent of growth of human tumor cells [22]: 14% | percent of growth of human tumor cells [23]: 27% | percent of growth of human tumor cells [24]: −45% | percent of growth of human tumor cells [25]: 11% | percent of growth of human tumor cells [26]: 27% | percent of growth of human tumor cells [27]: −25% | Percentage of cancers showing negative growth cancers tested [2]: 10^−4 M conc. = 8/25 = 32%

CC1(C)OCC(COC(=O)C(=O)C2(C3=C(Cl)C(=O)c4ccccc4C3=O)S(=O)(=O)OCCOS2(=O)=O)O1 (stereo not shown) [NSC 737278]
percent of growth of human tumor cells [28]: −25% | % Growth ([5]; HCC-2998, 10^−4 molar): −15% | % Growth ([5]; HCC-2998, 10^−5 molar): 41% | % Growth ([5]; HCC-2998, 10^−6 molar): 45% | % Growth ([5]; HCC-2998, 10^−7 molar): 64% | percent of growth of human tumor cells [29]: 4% | % Growth ([30]; 10^−4 molar): −37% | % Growth ([30]; 10^−5 molar): 20% | % Growth ([30]; 10^−6 molar): 33% | % Growth ([30]; 10^−7 molar): 56% | percent of growth of human tumor cells [8]: −9% | percent of growth of human tumor cells [31]: 12% | % Growth ([32]; MOLT-4, 10^−4 molar): −41% | % Growth ([32]; MOLT-4, 10^−5 molar): 53% | percent of growth of human tumor cells ([18]; MDA-MB-435 (Breast Cancer), 10^−4 molar): −45% | percent of growth of human tumor cells [23]: 6% | percent of growth of human tumor cells [24]: −30% | percent of growth of human tumor cells [33]: −4% | percent of growth of human tumor cells [34]: 22% | Percentage of cancers showing negative growth cancers tested [2]: 10^−4 M conc. = 8/12 = 67%

CC1(C)OCC(COC(=O)C(=O)OC(C(=O)OCC2COC(C)(C)O2)=C2S(=O)(=O)OCCOS2(=O)=O)O1 (stereo not shown) [NSC 737275]
percent of growth of human tumor cells [5]: −12% | percent of growth of human tumor cells ([30]; SR (Leukemia), 10^−4 molar): 7% | percent of growth of human tumor cells [10]: 24% | percent of growth of human tumor cells [35]: 17% | percent of growth of human tumor cells [36]: 15% | Percentage of cancers showing negative growth cancers tested [2]: 10^−4 M conc. = 1/5 = 20%
